From US11827628B2, “Compositions and methods for inhibition of the JAK pathway” (Rigel Pharmaceuticals, Inc., priority 2005, dated 2023) come the findings set out here.

Like-named read-outs stand apart in the source and are kept apart here.

Assay [1] has as its system IL-4 stimulated expression of CD23 in human Ramos B cells (JAK-1 and JAK-3). The experiment in a line: Assay for Ramos B-Cell Line Stimulated with IL-4 (CD23 upregulation, FACS). It counts as cell-based. Conditions: read-out: IC50, Example 41. Summed up: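 Human Ramos B cells (5×10^4 per point, RPMI 5% serum) pre-incubated 1 h at 37 °C with compound or DMSO, then stimulated with IL-4 at 50 units/mL final for 20-24 h. CD23 upregulation measured by anti-CD23-PE staining and flow cytometry; IC50 derived.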

For assay [2], the system named is up-regulation of ICAM-1 (CD54) by IFNγ in U937 human monocytic cells. As to the kind of experiment: U937 IFNγ ICAM1 FACS Assay. It counts as cell-based. The settings on record: ICAM-1 expression by FACS, read-out: IC50, Example 44. Summed up: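 U937 cells in 10% FCS RPMI were preincubated 30 min at 37 °C with an 8-point, 3-fold compound dilution series in duplicate, then stimulated with IFNγ for 18–24 h. Surface ICAM-1 was stained with APC anti-ICAM-1 and read by flow cytometry as geometric mean on live-gated cells. EC50 was derived.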
For orientation: A flow cytometer gives signals particle by particle.

The mark [3] stands for this setting: Homo sapiens, Ramos, Ramos B-cell line stimulated with IL-4, CD23 expression by FACS.
Where [4] appears, read: Homo sapiens, U-937, U937 cells stimulated with IFNγ.
Setting [5] is: Ramos B cells stimulated with IL-4, CD23 expression by FACS.
Where [6] appears, read: U937 cells stimulated with IFNγ.

On to `Cc1ccc(Nc2ncc(F)c(Nc3ccc(Oc4cccnc4)cc3)n2)cc1S(N)(=O)=O` [II-12, N2-(3-Aminosulfonyl-4-methylphenyl)-5-fluoro-N4-[4-(3-pyridyloxy)phenyl]-2,4-pyrimidinediamine], for which the IC50 in assay [1] (setting [3]) was 56.3 nM; in assay [2] (setting [4]) it was 1190 nM.
In the same order, the values of `Cc1cnc(Nc2ccc(Cl)c(S(N)(=O)=O)c2)nc1Nc1ccc(CCC#N)cc1` [III-12, N2-(3-Aminosulfonyl-4-chlorophenyl)-N4-[4-(2-cyanoethyl)phenyl]-5-methyl-2,4-pyrimidinediamine] are 70 nM and 321 nM.
For `Cc1ccc(Nc2ncc(F)c(Nc3ccc(CCC#N)c(F)c3)n2)cc1S(N)(=O)=O` [III-17, N2-(3-Aminosulfonyl-4-methylphenyl)-5-fluoro-N4-[4-(2-cyanoethyl)-3-fluorophenyl]-2,4-pyrimidinediamine], in that order: 56.7 nM and 782 nM.
For `N#CCCc1ccc(Nc2nc(Nc3cccc(S(N)(=O)=O)c3)ncc2F)cc1F` [III-18, N2-(3-Aminosulfonylphenyl)-N4-[4-(2-cyanoethyl)-3-fluorophenyl]-5-fluoro-2,4-pyrimidinediamine], in that order: 36.6 nM and 544 nM.
On to `Cc1cc(Nc2nc(Nc3ccc(C)c(S(N)(=O)=O)c3)ncc2F)ccc1CCC#N` [III-19, N2-(3-Aminosulfonyl-4-methylphenyl)-N4-[4-(2-cyanoethyl)-3-methylphenyl]-5-fluoro-2,4-pyrimidinediamine], for which the IC50 was 72.3 nM in assay [1] (setting [3]) and 55.6 nM in assay [2] (setting [4]).
In the same order, the values of `Cc1cc(Nc2nc(Nc3cccc(S(N)(=O)=O)c3)ncc2F)ccc1CCC#N` [III-20, N2-(3-Aminosulfonylphenyl)-N4-[4-(2-cyanoethyl)-3-methylphenyl]-5-fluoro-2,4-pyrimidinediamine] are 43 nM and 3330 nM.
For `Cc1ccc(Nc2ncc(F)c(Nc3ccc(CCC#N)c(Cl)c3)n2)cc1S(N)(=O)=O` [III-21, N2-(3-Aminosulfonyl-4-methylphenyl)-N4-[3-chloro-4-(2-cyanoethyl)phenyl]-5-fluoro-2,4-pyrimidinediamine], in that order: 30.3 nM and 339 nM.
In the same order, the values of `N#CCCc1ccc(Nc2nc(Nc3cccc(S(N)(=O)=O)c3)ncc2F)cc1Cl` [III-22, N2-(3-Aminosulfonylphenyl)-N4-[3-chloro-4-(2-cyanoethyl)phenyl]-5-fluoro-2,4-pyrimidinediamine] are 45.4 nM and 444 nM.
On to `Cc1ccc(Nc2ncc(F)c(Nc3ccc(CCOC(N)=O)cc3)n2)cc1S(N)(=O)=O` [III-53, N4-{4-[2-(Aminocarbonyloxy)ethyl]phenyl}-N2-(3-aminosulfonyl-4-methylphenyl)-5-fluoro-2,4-pyrimidinediamine], for which the values for the IC50 in assay [1] (setting [3]) and in assay [2] (setting [4]) were 97.7 nM and 1130 nM, respectively.
In the case of `NC(=O)OCCc1ccc(Nc2nc(Nc3cccc(S(N)(=O)=O)c3)ncc2F)cc1` [III-54, N4-{4-[2-(Aminocarbonyloxy)ethyl]phenyl}-N2-(3-aminosulfonylphenyl)-5-fluoro-2,4-pyrimidinediamine], the IC50 in assay [1] (setting [3]) worked out at 135 nM; in assay [2] (setting [4]) it was 1590 nM.
In the same order, the values of `CN(C)C(=O)OCCc1ccc(Nc2nc(Nc3cccc(S(N)(=O)=O)c3)ncc2F)cc1` [III-57, N2-(3-Aminosulfonylphenyl)-N4-{4-[2-(dimethylaminocarbonyloxy)ethyl]phenyl}-5-fluoro-2,4-pyrimidinediamine] are 53.6 nM and 838 nM.
In the same order, the values of `CNC(=O)OCCc1ccc(Nc2nc(Nc3cccc(S(N)(=O)=O)c3)ncc2F)cc1` [III-60, N2-(3-Aminosulfonylphenyl)-5-fluoro-N4-{4-[2-(methylaminocarbonyloxy)ethyl]phenyl}-2,4-pyrimidinediamine] are 135 nM and 1010 nM.
For `COc1ccc(Nc2ncc(F)c(Nc3ccc(Cc4ccncc4)cc3)n2)cc1S(N)(=O)=O` [III-66, N2-(3-Aminosulfonyl-4-methoxyphenyl)-5-fluoro-N4-[4-(4-pyridinylmethyl)phenyl]-2,4-pyrimidinediamine], in that order: 142 nM and 967 nM.
Turning to `NS(=O)(=O)c1ccc(Nc2ncc(F)c(Nc3ccc(Cc4ccncc4)cc3)n2)cc1` [III-71, N2-(4-Aminosulfonylphenyl)-5-fluoro-N4-[4-(4-pyridinylmethyl)phenyl]-2,4-pyrimidinediamine], the IC50 turned out to be 97.9 nM in assay [1] (setting [3]) and 1700 nM in assay [2] (setting [4]).
As to `Cc1ccc(Nc2ncc(F)c(Nc3ccc(Cc4ccncc4)cc3)n2)cc1S(N)(=O)=O` [III-74, N2-(3-Aminosulfonyl-4-methylphenyl)-5-fluoro-N4-[4-(4-pyridinylmethyl)phenyl]-2,4-pyrimidinediamine], the IC50 in assay [1] (setting [3]) stood at 95.2 nM; in assay [2] (setting [4]) it was 935 nM.
With `NS(=O)(=O)c1cccc(Nc2ncc(F)c(NCCc3ccc(-c4ccncc4)cc3)n2)c1` [III-76, N2-(3-Aminosulfonylphenyl)-5-fluoro-N4-[4-(4-pyridinyl)phenethyl]-2,4-pyrimidinediamine], the IC50 in assay [1] (setting [3]) was 104 nM; in assay [2] (setting [4]) it was 447 nM.
For `Cc1ccc(Nc2ncc(F)c(NCCc3ccc(-c4ccncc4)cc3)n2)cc1S(N)(=O)=O` [III-77, N2-(3-Aminosulfonyl-4-methylphenyl)-5-fluoro-N4-[4-(4-pyridinyl)phenethyl]-2,4-pyrimidinediamine], in that order: 177 nM and 681 nM.
On to `NS(=O)(=O)c1cccc(Nc2ncc(F)c(NCCc3ccc(-n4ccnc4)cc3)n2)c1` [III-87, N2-(3-Aminosulfonylphenyl)-5-fluoro-N4-[4-(1-imidazolyl)phenethyl]-2,4-pyrimidinediamine], for which the IC50 worked out at 141 nM in assay [1] (setting [3]) and 2950 nM in assay [2] (setting [4]).
For `Cc1ccc(Nc2ncc(F)c(NCCc3ccc(-n4ccnc4)cc3)n2)cc1S(N)(=O)=O` [III-88, N2-(3-Aminosulfonyl-4-methylphenyl)-5-fluoro-N4-[4-(1-imidazolyl)phenethyl]-2,4-pyrimidinediamine], in that order: 141 nM and 2040 nM.
Consider `NS(=O)(=O)c1cccc(Nc2ncc(F)c(Nc3ccc(Cn4cncn4)cc3)n2)c1` [III-100, N2-(3-Aminosulfonylphenyl)-5-fluoro-N4-{4-[1-(1,2,4-thazolyl)methyl]phenyl}-2,4-pyrimidinediamine], for which the half-maximal inhibitory concentration (IC50) was 162 nM in assay [1] (setting [5]) and 1910 nM in assay [2] (setting [6]).
For `NS(=O)(=O)c1cccc(Nc2ncc(F)c(Nc3ccc(CN4CCOCC4)cc3)n2)c1` [III-103, N2-(3-Aminosulfonylphenyl)-5-fluoro-N4-(4-N-morpholinomethylenephenyl)-2,4-pyrimidinediamine], in that order: 230 nM and 2430 nM.
As to `Cc1ccc(Nc2ncc(F)c(Nc3ccc(CN4CCOCC4)cc3)n2)cc1S(N)(=O)=O` [III-104, N2-(3-Aminosulfonyl-4-methylphenyl)-5-fluoro-N4-(4-N-morpholinomethylenephenyl)-2,4-pyrimidinediamine], the IC50 in assay [1] (setting [5]) is 242 nM; in assay [2] (setting [6]) it was 2160 nM.
For `Cc1noc(CCc2ccc(Nc3nc(Nc4cccc(S(N)(=O)=O)c4)ncc3F)cc2)n1` [III-106, N2-(3-Aminosulfonylphenyl)-5-fluoro-N4-[4-(3-methyl-1,2,4-oxadiazol-5-yl)ethylenephenyl]-2,4-pyrimidinediamine], in that order: 42.8 nM and 492 nM.

One may read the IC50 as the point on the concentration scale where inhibition reaches its midpoint.
